# Results reported in patent US20250129054A1 (Terran Biosciences Inc., priority 2022, published 2025).
# Several values for one entry are separate records, joined by “and”; a condition that tells them apart may be missing. Equal entries are not always repeated. Where two headings read alike, the source gives them in different places.
# Experiments:
# [1] = cited from earlier work
# [2] = Serial tail vein bleed PK study in SD rats: methylone measured in plasma after IV or oral methylone or oral methylone prodrugs; assay type: in vivo, Sprague Dawley rats; conditions: methylone in plasma, male SD rats; for half-life: read-out: T½ (converted)
# How it was run: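 Three male Sprague-Dawley rats received methylone at 1 mg/kg IV (saline) or 10 mg/kg PO, or prodrugs at 10 mg/kg PO in 10% DMSO/20% PEG400/70% water, doses as methylone equivalents. Methylone measured in serial plasma samples. Non-compartmental PK parameters derived from nominal doses.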
# [3] = male, Sprague-Dawley, rat, plasma, iv, 1 mg/kg, methylone 1 mg/kg IV, individual animals
# [4] = male, Sprague-Dawley, rat, plasma, iv, 1 mg/kg, methylone 1 mg/kg IV, mean
# [5] = male, Sprague-Dawley, rat, plasma, po, 10 mg/kg, methylone 10 mg/kg oral, individual animals
# [6] = male, Sprague-Dawley, rat, plasma, po, 10 mg/kg, methylone 10 mg/kg oral, mean
# [7] = methylone 1 mg/kg IV, individual animals
# [8] = methylone 10 mg/kg oral, individual animals
structure (smiles),measurement,setting,value
"CNC(C)C(=O)c1ccc2c(c1)OCO2 (racemic) [Methylone, 3,4-methylenedioxy-N-methylcathinone, reference compound]",reported time to achieve peak effects,"[1]; after oral dosing, Poyatos et al., 2021",1 to 2 h
same,Oral Methylone Dose for Drug Activity Level Very Strong,"[1]; human, oral, modified from WHO 2014",≥270 mg
same,prolongation of duration of effects by re-dose,"[1]; re-dose of one-third to one-half the initial dose, WHO 2014",approximately one
same,AUC(0-t),[2]; [3],163 ng·h/mL
same,AUC(0-inf),"[2]; male, Sprague-Dawley, rat, plasma, iv, 1 mg/kg, methylone 1 mg/kg IV, individual animals, read-out: AUC0-inf",168 ng·h/mL
same,Cmax,"[2]; male, Sprague-Dawley, rat, plasma, iv, 1 mg/kg, methylone 1 mg/kg IV, individual animals, read-out: Cmax",192 ng/mL
same,Tmax,"[2]; male, Sprague-Dawley, rat, plasma, iv, 1 mg/kg, methylone 1 mg/kg IV, individual animals, read-out: Tmax",15 min
same,half-life,[2]; [3],24.6 min
same,AUC(0-t),[2]; [4],142 ng·h/mL
same,AUC(0-inf),"[2]; male, Sprague-Dawley, rat, plasma, iv, 1 mg/kg, methylone 1 mg/kg IV, mean, read-out: AUC0-inf",145 ng·h/mL
same,Cmax,"[2]; male, Sprague-Dawley, rat, plasma, iv, 1 mg/kg, methylone 1 mg/kg IV, mean, read-out: Cmax",172 ng/mL
same,Tmax,"[2]; male, Sprague-Dawley, rat, plasma, iv, 1 mg/kg, methylone 1 mg/kg IV, mean, read-out: Tmax",15 min
same,half-life,[2]; [4],23.7 min
same,AUC(0-t),[2]; [5],636 ng·h/mL
same,AUC(0-inf),"[2]; male, Sprague-Dawley, rat, plasma, po, 10 mg/kg, methylone 10 mg/kg oral, individual animals, read-out: AUC0-inf",729 ng·h/mL
same,half-life,[2]; [5],135 min
same,AUC(0-t),[2]; [6],681 ng·h/mL
same,AUC(0-inf),"[2]; male, Sprague-Dawley, rat, plasma, po, 10 mg/kg, methylone 10 mg/kg oral, mean, read-out: AUC0-inf",890 ng·h/mL
same,Cmax,"[2]; male, Sprague-Dawley, rat, plasma, po, 10 mg/kg, methylone 10 mg/kg oral, mean, read-out: Cmax",170 ng/mL
same,Tmax,"[2]; male, Sprague-Dawley, rat, plasma, po, 10 mg/kg, methylone 10 mg/kg oral, mean, read-out: Tmax",70.2 min
same,half-life,[2]; [6],148 min
same,AUC0-last,[2]; [7],134 ng·h/mL and 128 ng·h/mL
same,AUC(0-inf),[2]; [7],136 ng·h/mL and 131 ng·h/mL
same,Cmax,[2]; [7],165 ng/mL and 159 ng/mL
same,Tlast,[2]; [7],2.0 h
same,T½,[2]; [7],22.8 min and 24 min
same,Tlast,"[2]; methylone 1 mg/kg IV, mean",2.0 h
same,AUC0-last,[2]; [8],520 ng·h/mL and 888 ng·h/mL
same,AUC(0-inf),[2]; [8],1050 ng·h/mL
same,Cmax,[2]; [8],130 ng/mL and 119 ng/mL and 260 ng/mL
same,Tlast,[2]; [8],7.00 h
same,Tmax,[2]; [8],60 min and 120 min and 30 min
same,T½,[2]; [8],160 min
same,Tlast,"[2]; methylone 10 mg/kg oral, mean",7.00 h
